Values of other authors in patent US20160144033A1, “CONCENTRATED ACETAMINOPHEN SOLUTION” (Emphascience, Inc., priority 2014, published 2016).

Settings: room temperature

solubility of acetaminophen in water: ca. 13 mg per ml
SMILES: CC(=O)Nc1ccc(O)cc1 [acetaminophen]
